Source: the NIST ThermoML archive (doi:10.1016/j.jct.2014.01.006)
Values joined by “and” are separate entries in the source; they are usually repeats but may differ in a detail not shown here. Identical values can stand only once. ± gives the expanded uncertainty stated by the source.

How the values were obtained:
[1] = for vapor or sublimation pressure: Liquid, Ebulliometric method (Recirculating still); for Triple point temperature: Adiabatic calorimetry
[2] = Molar enthalpy of transition or fusion; conditions: Crystal; Adiabatic calorimetry
[3] = molar heat capacity at saturation pressure

c1ccc(-c2ccc3ccccc3c2)cc1 [2-phenylnaphthalene]
[1]
Conditions | Triple point temperature [K] | vapor or sublimation pressure [kPa]
482.85 K | – | 1.996 ± 0.0082
502.83 K | – | 3.998 ± 0.0084
511.75 K | – | 5.335 ± 0.0089
524.93 K | – | 7.993 ± 0.0095
534.9 K | – | 10.67 ± 0.01
542.89 K | – | 13.33 ± 0.011
551.2 K | – | 16.66 ± 0.013
558.16 K | – | 19.95 ± 0.014
567.23 K | – | 25.03 ± 0.016
576.35 K | – | 31.16 ± 0.018
585.57 K | – | 38.56 ± 0.022
594.82 K | – | 47.36 ± 0.025
604.12 K | – | 57.8 ± 0.027
Crystal | 374.77 ± 0.039 | –
Metastable crystal | 331.4 ± 0.1 | –

Conditions | Molar enthalpy of transition or fusion [kcal/mol]
[2] | 5.406 ± 0.00574

[3]
Conditions | molar heat capacity
5.559 K, Metastable crystal, Vacuum adiabatic calorimetry | 0.7317 ± 0.025 J/K/mol
6.48 K, Metastable crystal, Vacuum adiabatic calorimetry | 1.172 ± 0.042 J/K/mol
7.437 K, Metastable crystal, Vacuum adiabatic calorimetry | 1.821 ± 0.058 J/K/mol
8.415 K, Metastable crystal, Vacuum adiabatic calorimetry | 2.519 ± 0.083 J/K/mol
9.445 K, Metastable crystal, Vacuum adiabatic calorimetry | 3.484 ± 0.11 J/K/mol
10.55 K, Metastable crystal, Vacuum adiabatic calorimetry | 4.639 ± 0.042 J/K/mol
11.76 K, Metastable crystal, Vacuum adiabatic calorimetry | 5.912 ± 0.05 J/K/mol
13.12 K, Metastable crystal, Vacuum adiabatic calorimetry | 7.541 ± 0.067 J/K/mol
14.58 K, Metastable crystal, Vacuum adiabatic calorimetry | 9.304 ± 0.075 J/K/mol
16.16 K, Metastable crystal, Vacuum adiabatic calorimetry | 11.42 ± 0.083 J/K/mol
17.89 K, Metastable crystal, Vacuum adiabatic calorimetry | 13.64 ± 0.1 J/K/mol
19.78 K, Metastable crystal, Vacuum adiabatic calorimetry | 16.13 ± 0.11 J/K/mol
21.84 K, Metastable crystal, Vacuum adiabatic calorimetry | 18.86 ± 0.12 J/K/mol
24.08 K, Metastable crystal, Vacuum adiabatic calorimetry | 21.79 ± 0.14 J/K/mol
26.55 K, Metastable crystal, Vacuum adiabatic calorimetry | 25.04 ± 0.15 J/K/mol
29.3 K, Metastable crystal, Vacuum adiabatic calorimetry | 28.54 ± 0.17 J/K/mol
32.36 K, Metastable crystal, Vacuum adiabatic calorimetry | 32.33 ± 0.083 J/K/mol
35.77 K, Metastable crystal, Vacuum adiabatic calorimetry | 36.35 ± 0.091 J/K/mol
39.57 K, Metastable crystal, Vacuum adiabatic calorimetry | 40.62 ± 0.1 J/K/mol
43.81 K, Metastable crystal, Vacuum adiabatic calorimetry | 45.16 ± 0.11 J/K/mol
48.55 K, Metastable crystal, Vacuum adiabatic calorimetry | 49.75 ± 0.11 J/K/mol
53.87 K, Metastable crystal, Vacuum adiabatic calorimetry | 54.71 ± 0.12 J/K/mol
54.57 K, Metastable crystal, Vacuum adiabatic calorimetry | 55.24 ± 0.12 J/K/mol
59.82 K, Metastable crystal, Vacuum adiabatic calorimetry | 59.78 ± 0.12 J/K/mol
59.83 K, Metastable crystal, Vacuum adiabatic calorimetry | 59.82 ± 0.13 J/K/mol
65.64 K, Metastable crystal, Vacuum adiabatic calorimetry | 64.42 ± 0.13 J/K/mol
66.41 K, Metastable crystal, Vacuum adiabatic calorimetry | 64.99 ± 0.14 J/K/mol
72.14 K, Metastable crystal, Vacuum adiabatic calorimetry | 69.36 ± 0.14 J/K/mol
79.33 K, Metastable crystal, Vacuum adiabatic calorimetry | 74.52 ± 0.15 J/K/mol
84.66 K, Metastable crystal, Vacuum adiabatic calorimetry | 78.26 ± 0.16 J/K/mol
87.38 K, Metastable crystal, Vacuum adiabatic calorimetry | 80.02 ± 0.17 J/K/mol
91.53 K, Metastable crystal, Vacuum adiabatic calorimetry | 82.9 ± 0.22 J/K/mol
96.29 K, Metastable crystal, Vacuum adiabatic calorimetry | 86.19 ± 0.22 J/K/mol
100.11 K, Metastable crystal, Vacuum adiabatic calorimetry | 88.71 ± 0.22 J/K/mol
109.67 K, Metastable crystal, Vacuum adiabatic calorimetry | 95.07 ± 0.23 J/K/mol
119.51 K, Metastable crystal, Vacuum adiabatic calorimetry | 101.67 ± 0.23 J/K/mol
129.29 K, Metastable crystal, Vacuum adiabatic calorimetry | 108.34 ± 0.24 J/K/mol
139.13 K, Metastable crystal, Vacuum adiabatic calorimetry | 115.15 ± 0.25 J/K/mol
149.04 K, Metastable crystal, Vacuum adiabatic calorimetry | 122.22 ± 0.26 J/K/mol
159.05 K, Metastable crystal, Vacuum adiabatic calorimetry | 129.45 ± 0.27 J/K/mol
169.13 K, Metastable crystal, Vacuum adiabatic calorimetry | 137.04 ± 0.27 J/K/mol
179.22 K, Metastable crystal, Vacuum adiabatic calorimetry | 144.69 ± 0.28 J/K/mol
189.28 K, Metastable crystal, Vacuum adiabatic calorimetry | 152.55 ± 0.29 J/K/mol
199.33 K, Metastable crystal, Vacuum adiabatic calorimetry | 160.58 ± 0.3 J/K/mol
210.43 K, Metastable crystal, Vacuum adiabatic calorimetry | 169.63 ± 0.32 J/K/mol
222.54 K, Metastable crystal, Vacuum adiabatic calorimetry | 179.67 ± 0.32 J/K/mol
234.7 K, Metastable crystal, Vacuum adiabatic calorimetry | 190.12 ± 0.33 J/K/mol
246.9 K, Metastable crystal, Vacuum adiabatic calorimetry | 200.49 ± 0.35 J/K/mol
260.13 K, Metastable crystal, Vacuum adiabatic calorimetry | 212.11 ± 0.36 J/K/mol
274.34 K, Metastable crystal, Vacuum adiabatic calorimetry | 224.81 ± 0.37 J/K/mol
281.75 K, Metastable crystal, Vacuum adiabatic calorimetry | 231.62 ± 0.38 J/K/mol
287.18 K, Metastable crystal, Vacuum adiabatic calorimetry | 236.87 ± 0.39 J/K/mol
288.45 K, Metastable crystal, Vacuum adiabatic calorimetry | 238 ± 0.39 J/K/mol
288.88 K, Metastable crystal, Vacuum adiabatic calorimetry | 238.28 ± 0.39 J/K/mol
289.67 K, Metastable crystal, Vacuum adiabatic calorimetry | 239.32 ± 0.39 J/K/mol
290.86 K, Metastable crystal, Vacuum adiabatic calorimetry | 240.77 ± 0.39 J/K/mol
297.62 K, Metastable crystal, Vacuum adiabatic calorimetry | 247.26 ± 0.4 J/K/mol
302.22 K, Metastable crystal, Vacuum adiabatic calorimetry | 251.81 ± 0.41 J/K/mol
303.66 K, Metastable crystal, Vacuum adiabatic calorimetry | 253.46 ± 0.41 J/K/mol
304.26 K, Metastable crystal, Vacuum adiabatic calorimetry | 253.82 ± 0.41 J/K/mol
305.95 K, Metastable crystal, Vacuum adiabatic calorimetry | 255.73 ± 0.42 J/K/mol
316.27 K, Metastable crystal, Vacuum adiabatic calorimetry | 265.74 ± 0.42 J/K/mol
319.32 K, Metastable crystal, Vacuum adiabatic calorimetry | 269.07 ± 0.42 J/K/mol
319.63 K, Metastable crystal, Vacuum adiabatic calorimetry | 269.43 ± 0.42 J/K/mol
323.18 K, Metastable crystal, Vacuum adiabatic calorimetry | 273.51 ± 0.43 J/K/mol
328.64 K, Metastable crystal, Vacuum adiabatic calorimetry | 281.65 ± 0.44 J/K/mol
334.1 K, Crystal, Vacuum adiabatic calorimetry | 295.45 ± 0.46 J/K/mol
339.55 K, Crystal, Vacuum adiabatic calorimetry | 300.3 ± 0.47 J/K/mol
340.55 K, Crystal, Vacuum adiabatic calorimetry | 301.83 ± 0.47 J/K/mol
345.85 K, Crystal, Vacuum adiabatic calorimetry | 308.66 ± 0.47 J/K/mol
346.7 K, Crystal, Vacuum adiabatic calorimetry | 310.38 ± 0.47 J/K/mol
352.89 K, Crystal, Vacuum adiabatic calorimetry | 319.98 ± 0.49 J/K/mol
354.52 K, Crystal, Vacuum adiabatic calorimetry | 323.81 ± 0.49 J/K/mol
355.25 K, Crystal, Vacuum adiabatic calorimetry | 323.51 ± 0.49 J/K/mol
356.41 K, Crystal, Vacuum adiabatic calorimetry | 326.01 ± 0.5 J/K/mol
360.85 K, Crystal, Vacuum adiabatic calorimetry | 334.71 ± 0.51 J/K/mol
364.78 K, Crystal, Vacuum adiabatic calorimetry | 343.22 ± 0.52 J/K/mol
365.47 K, Crystal, Vacuum adiabatic calorimetry | 344.57 ± 0.52 J/K/mol
365.99 K, Crystal, Vacuum adiabatic calorimetry | 347.25 ± 0.53 J/K/mol
368.76 K, Crystal, Vacuum adiabatic calorimetry | 353.17 ± 0.53 J/K/mol
381.15 K, Liquid, Vacuum adiabatic calorimetry | 364.06 ± 0.54 J/K/mol
381.64 K, Liquid, Vacuum adiabatic calorimetry | 364.18 ± 0.54 J/K/mol
382.95 K, Liquid, Vacuum adiabatic calorimetry | 365.06 ± 0.54 J/K/mol
388.39 K, Liquid, Vacuum adiabatic calorimetry | 368.05 ± 0.55 J/K/mol
390.22 K, Liquid, Vacuum adiabatic calorimetry | 369.13 ± 0.55 J/K/mol
405.19 K, Liquid, Vacuum adiabatic calorimetry | 377.51 ± 0.56 J/K/mol
410.1 K, Liquid, Small sample (50 mg) DSC | 380.3 ± 9.3 J/K/mol and 382.63 ± 9.4 J/K/mol
422.04 K, Liquid, Vacuum adiabatic calorimetry | 386.86 ± 0.57 J/K/mol
430 K, Liquid, Small sample (50 mg) DSC | 394.6 ± 9.6 J/K/mol and 391.03 ± 9.6 J/K/mol
436.24 K, Liquid, Vacuum adiabatic calorimetry | 394.72 ± 0.57 J/K/mol
450 K, Liquid, Small sample (50 mg) DSC | 405.58 ± 9.9 J/K/mol and 401.51 ± 9.8 J/K/mol
470.1 K, Liquid, Small sample (50 mg) DSC | 411.15 ± 10 J/K/mol and 413.48 ± 10 J/K/mol
490 K, Liquid, Small sample (50 mg) DSC | 424.7 ± 10 J/K/mol and 423.46 ± 10 J/K/mol
510 K, Liquid, Small sample (50 mg) DSC | 434.93 ± 11 J/K/mol and 427.36 ± 10 J/K/mol
530.1 K, Liquid, Small sample (50 mg) DSC | 446.82 ± 11 J/K/mol and 444.24 ± 11 J/K/mol
550.1 K, Liquid, Small sample (50 mg) DSC | 457.21 ± 11 J/K/mol and 455.97 ± 11 J/K/mol
570.1 K, Liquid, Small sample (50 mg) DSC | 468.27 ± 11 J/K/mol and 467.27 ± 11 J/K/mol
590.1 K, Liquid, Small sample (50 mg) DSC | 477.92 ± 12 J/K/mol and 476.09 ± 12 J/K/mol
610.1 K, Liquid, Small sample (50 mg) DSC | 484.48 ± 12 J/K/mol and 484.15 ± 12 J/K/mol
